The results in this text go back to patent US20250163057A1, “DCN-1 MODULATING COMPOUNDS AND METHODS OF USE THEREOF” (Cellarity, Inc., priority 2023, published 2025).

For orientation: IC50 means the point on the concentration scale where inhibition reaches its midpoint.

Molecules are shown by their SMILES. Where two headings read alike, the source gives them in different places.

The test has as its target DCN1 (DCUND1) protein PONY domain (Homo sapiens (Human), UniProt Q96GG9). The experiment in a line: TR-FRET assay, DCN1 binding with FAM-labeled probe. How it is done:
A TR-FRET assay was performed to evaluate the ability of the compounds to bind the DCN-1 protein.
The TR-FRET assay was designed following the Scott et al. protocol (Scott et al., Nat Chem Biol. 2017 August; 13(8): 850-857. Doi:10.1038/nchembio.2386). The recombinant form of the DCN1 (DCUND1) protein PONY domain was produced using an E. coli expression system at Viva Biotech (China). The DCN1 protein was biotinylated (EZ sulfo-NHS-LC-biotin; Thermofisher) for labeling with streptavidin terbium (Tb) cryptate in the reaction. The probe was changed to a non-covalent DCN1 inhibitor labeled with carboxyfluorescein (FAM; Zhou et al., Nat Commun. 2017; 8: 1150. Doi: 10.1038/s41467-017-01243-7). Buffer conditions were modified to enhance protein stability by exchanging Tween20 for TritonX and increasing NaCl to 200 mM. The compounds were screened against 5 nM DCN1 and 20 nM FAM-probe or 0.31 nM DCN1 and 900 nM total probe (100 nM FAM-labeled plus 800 nM unlabeled). The TR-FRET ratio between Tb-DCN1 and the FAM-labeled probe was measured in a 384-well opti-plate (Perkin Elmer) using a plate reader (BMG) at 1, 5, and 24 hrs after treatment with compound (final DMSO concentration of 0.1%).

Setting [1] is: 24 hr after treatment with compound, read-out: TR FRET IC50 24 hr.
Setting [2] is: TR FRET IC50 1 hr (nM), 1 hr after treatment with compound.
The mark [3] stands for this setting: read-out: TR FRET IC50 1 hr, 1 hr after treatment with compound.

Sequence of DCN1 (DCUND1) protein PONY domain (Q96GG9 60-248): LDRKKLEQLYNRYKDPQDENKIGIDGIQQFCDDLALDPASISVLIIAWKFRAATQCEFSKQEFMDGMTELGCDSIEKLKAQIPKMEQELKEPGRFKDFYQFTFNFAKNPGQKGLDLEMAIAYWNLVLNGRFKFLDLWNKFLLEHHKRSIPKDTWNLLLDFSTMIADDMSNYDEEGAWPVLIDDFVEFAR

As to `CCN1C(=O)[C@@H](NC(=O)c2cccc(C(F)(F)F)c2)[C@@H](c2ccc(F)cc2)c2c(C(=O)N3CCC[C@@H]3C#N)nn(-c3ccccc3)c21` (mixture of isomers) [Compound I-94], the IC50 fell in the range of 200 to 1000 nM under setting [1] and 200 to 1000 nM under setting [2].

As to `CCN1C(=O)[C@@H](NC(=O)c2cccc(C(F)(F)F)c2)[C@@H](c2ccc(F)cc2)c2c(C(=O)N3CC[C@H](C#N)C3)nn(-c3ccccc3)c21` (mixture of isomers) [Compound I-137], the IC50 lay within 200 to 1000 nM under setting [1] and 200 to 1000 nM under setting [2].

Regarding `CCN1C(=O)[C@@H](NC(=O)c2cccc(C(F)(F)F)c2)[C@@H](c2ccc(F)cc2)c2c(C(=O)N[C@H](C)C#N)nn(-c3ccccc3)c21` (mixture of isomers) [Compound I-157], the IC50 fell in the range of 200 to 1000 nM under setting [1] and 1000 to 3000 nM under setting [2].

With `C/C=C/S(=O)(=O)NCc1nn(-c2ccccc2)c2c1[C@H](c1ccc(F)cc1)[C@H](NC(=O)c1cccc(C(F)(F)F)c1)C(=O)N2CC` (racemic) [Compound I-6], the concentration for half-maximal inhibition (IC50) runs as follows: under setting [1], at most 200 nM; under setting [2], 200 to 1000 nM.

As for `CCN1C(=O)[C@@H](NC(=O)c2cccc(C(F)(F)F)c2)[C@@H](c2ccc(F)cc2)c2c([C@H](O)CNC#N)nn(-c3ccccc3)c21` (racemic) [Compound I-9, rac-N-((4R,5R)-3-(2-cyanamido-1-hydroxyethyl)-7-ethyl-4-(4-fluorophenyl)-6-oxo-1-phenyl-4,5,6,7-tetrahydro-1H-pyrazolo[3,4-b]pyridin-5-yl)-3-(trifluoromethyl)benzamide], the IC50 under setting [1] was 1000 to 3000 nM and the IC50 under setting [2] was in the range of 200 to 1000 nM.

Turning to `CCN1C(=O)[C@@H](NC(=O)c2cccc(C(F)(F)F)c2)[C@@H](c2ccc(F)cc2)c2c(NC(=O)C#CCN3CCOCC3)nn(-c3ccccc3)c21` (racemic) [Compound I-11, rac-N-((4R,5R)-7-ethyl-4-(4-fluorophenyl)-3-(4-morpholinobut-2-ynamido)-6-oxo-1-phenyl-4,5,6,7-tetrahydro-1H-pyrazolo[3,4-b]pyridine-5-yl)-3-(trifluoromethyl)benzamide], the 50% inhibitory concentration (IC50) under setting [1] was at most 200 nM and the IC50 under setting [2] lay within 200 to 1000 nM.

As to `C/C=C(\CN1CCOCC1)C(=O)NCc1nn(-c2ccccc2)c2c1[C@H](c1ccc(F)cc1)[C@H](NC(=O)c1cccc(C(F)(F)F)c1)C(=O)N2CC` (racemic) [Compound I-14], the IC50 under setting [1] is at most 200 nM and the IC50 under setting [3] is at most 200 nM.

In the case of `CCN1C(=O)[C@@H](NC(=O)c2cccc(C(F)(F)F)c2)[C@@H](c2ccc(F)cc2)c2c(CNC(=O)/C=C/C(=O)NCCO)nn(-c3ccccc3)c21` (racemic) [Compound I-15, rac-N1-(((4R,5R)-7-ethyl-4-(4-fluorophenyl)-6-oxo-1-phenyl-5-(3-(trifluoromethyl)benzamido)-4,5,6,7-tetrahydro-1H-pyrazolo[3,4-b]pyridine-3-yl)methyl)-N4-(2-hydroxyethyl)fumaramide], the IC50 is 1000 to 3000 nM under setting [1] and 1000 to 3000 nM under setting [2].

`C=C(CC(=O)OC)C(=O)NCc1nn(-c2ccccc2)c2c1[C@H](c1ccc(F)cc1)[C@H](NC(=O)c1cccc(C(F)(F)F)c1)C(=O)N2CC` (racemic) [Compound I-17]: the IC50 reads like this: under setting [1], 1000 to 3000 nM; under setting [2], 1000 to 3000 nM.

As for `C=C(Cc1nn(-c2ccccc2)c2c1[C@H](c1ccc(F)cc1)[C@H](NC(=O)c1cccc(C(F)(F)F)c1)C(=O)N2CC)C(=O)O` (racemic) [Compound I-21, rac-2-(((4R,5R)-7-ethyl-4-(4-fluorophenyl)-6-oxo-1-phenyl-5-(3-(trifluoromethyl)benzamido)-4,5,6,7-tetrahydro-1H-pyrazolo[3,4-b]pyridin-3-yl)methyl)acrylic acid], the IC50 is, setting by setting: under setting [1], 1000 to 3000 nM; under setting [2], 1000 to 3000 nM.

With `CCN1C(=O)[C@@H](NC(=O)c2cccc(C(F)(F)F)c2)[C@@H](c2ccc(F)cc2)c2c(CNC(=O)C3(C#N)CCOCC3)nn(-c3ccccc3)c21` (racemic) [Compound I-22, rac-4-cyano-N-(((4R,5R)-7-ethyl-4-(4-fluorophenyl)-6-oxo-1-phenyl-5-(3-(trifluoromethyl)benzamido)-4,5,6,7-tetrahydro-1H-pyrazolo[3,4-b]pyridine-3-yl)methyl)tetrahydro-2H-pyran-4-carboxamide], the IC50 is 1000 to 3000 nM under setting [1] and 1000 to 3000 nM under setting [2].

Turning to `CCN1C(=O)[C@@H](NC(=O)c2cccc(C(F)(F)F)c2)[C@@H](c2ccc(F)cc2)c2c(C/C=C/C(=O)NCCCO)nn(-c3ccccc3)c21` (racemic) [Compound I-24], the IC50 reads like this: under setting [1], 1000 to 3000 nM; under setting [2], 1000 to 3000 nM.

In the case of `CCN1C(=O)[C@@H](NC(=O)c2cccc(C(F)(F)F)c2)[C@@H](c2ccc(F)cc2)c2c(CNC(=O)C3=CCCN(C)C3)nn(-c3ccccc3)c21` (racemic) [Compound I-28], the IC50 is at most 200 nM under setting [1] and 200 to 1000 nM under setting [2].

As to `CCN1C(=O)[C@@H](NC(=O)c2cccc(C(F)(F)F)c2)[C@@H](c2ccc(F)cc2)c2c(C(=O)NC(C)(C)C#N)nn(-c3ccccc3)c21` (racemic) [Compound I-31, rac-(4R,5R)—N-(2-cyanopropan-2-yl)-7-ethyl-4-(4-fluorophenyl)-6-oxo-1-phenyl-5-(3-(trifluoromethyl)benzamido)-4,5,6,7-tetrahydro-1H-pyrazolo[3,4-b]pyridine-3-carboxamide], the IC50 is 1000 to 3000 nM under setting [1] and 1000 to 3000 nM under setting [2].

For `CCN1C(=O)[C@@H](NC(=O)c2cccc(C(F)(F)F)c2)[C@@H](c2ccc(F)cc2)c2c(C/C=C/C(=O)NCCO)nn(-c3ccccc3)c21` (racemic) [Compound I-36], the IC50 under setting [1] lay within 1000 to 3000 nM and the half-inhibitory concentration (IC50) under setting [2] lay within 1000 to 3000 nM.

For `CCN1C(=O)[C@@H](NC(=O)c2cccc(C(F)(F)F)c2)[C@@H](c2ccc(F)cc2)c2c(/C=C3\CCC(=O)N3)nn(-c3ccccc3)c21` (racemic) [Compound I-39, rac-N-((4R,5R)-7-ethyl-4-(4-fluorophenyl)-6-oxo-3-((E)-(5-oxopyrrolidin-2-ylidene)methyl)-1-phenyl-4,5,6,7-tetrahydro-1H-pyrazolo[3,4-b]pyridin-5-yl)-3-(trifluoromethyl)benzamide], the IC50 reads like this: under setting [1], 1000 to 3000 nM; under setting [2], 1000 to 3000 nM.

With `CCN1C(=O)[C@@H](NC(=O)c2cccc(C(F)(F)F)c2)[C@@H](c2ccc(F)cc2)c2c(C/C=C/C(=O)N(C)C)nn(-c3ccccc3)c21` (racemic) [Compound I-41], the IC50 was in the range of 1000 to 3000 nM under setting [1] and 1000 to 3000 nM under setting [2].

Consider `CCN1C(=O)[C@@H](NC(=O)c2cccc(C(F)(F)F)c2)[C@@H](c2ccc(F)cc2)c2c(C(C)(C)N(C)C#N)nn(-c3ccccc3)c21` (racemic) [Compound I-42, rac-N-((4R,5R)-7-ethyl-4-(4-fluorophenyl)-3-(2-(N-methylcyanamido)propan-2-yl)-6-oxo-1-phenyl-4,5,6,7-tetrahydro-1H-pyrazolo[3,4-b]pyridin-5-yl)-3-(trifluoromethyl)benzamide], for which the IC50 runs as follows: under setting [1], 1000 to 3000 nM; under setting [2], 1000 to 3000 nM.

For the compound `CCN1C(=O)[C@@H](NC(=O)c2cccc(C(F)(F)F)c2)[C@@H](c2ccc(F)cc2)c2c(CC/C=C\C(=O)NC)nn(-c3ccccc3)c21` (racemic) [Compound I-43], the IC50 under setting [1] is 1000 to 3000 nM and the IC50 under setting [2] lay in the range of 200 to 1000 nM.

For `CCN1C(=O)[C@@H](NC(=O)c2cccc(C(F)(F)F)c2)[C@@H](c2ccc(F)cc2)c2c(CNC(=O)/C=C/C(=O)OC(C)(C)C)nn(-c3ccccc3)c21` (racemic) [Compound I-45, tert-butyl I-4-((((4S,5S)-7-ethyl-4-(4-fluorophenyl)-6-oxo-1-phenyl-5-(3-(trifluoromethyl)benzamido)-4,5,6,7-tetrahydro-1H-pyrazolo[3,4-b]pyridine-3-yl)methyl)amino)-4-oxobut-2-enoate], the IC50 was at most 200 nM under setting [1] and 1000 to 3000 nM under setting [2].

With `CCN1C(=O)[C@@H](NC(=O)c2cccc(C(F)(F)F)c2)[C@@H](c2ccc(F)cc2)c2c(C/C=C/C(N)=O)nn(-c3ccccc3)c21` (racemic) [Compound I-46, rac-N-((4R,5R)-3-((E)-4-amino-4-oxobut-2-en-1-yl)-7-ethyl-4-(4-fluorophenyl)-6-oxo-1-phenyl-4,5,6,7-tetrahydro-1H-pyrazolo[3,4-b]pyridin-5-yl)-3-(trifluoromethyl)benzamide], the IC50 is, setting by setting: under setting [1], 1000 to 3000 nM; under setting [2], 1000 to 3000 nM.

With `CCN1C(=O)[C@@H](NC(=O)c2cccc(C(F)(F)F)c2)[C@@H](c2ccc(F)cc2)c2c(CC/C=C/C(=O)N(C)C)nn(-c3ccccc3)c21` (racemic) [Compound I-48], the IC50 under setting [1] was at most 200 nM and the IC50 under setting [3] was at most 200 nM.

Regarding `CCN1C(=O)[C@@H](NC(=O)c2cccc(C(F)(F)F)c2)[C@@H](c2ccc(F)cc2)c2c(C3(N(C)C#N)CC3)nn(-c3ccccc3)c21` (racemic) [Compound I-52], the IC50 is, setting by setting: under setting [1], 1000 to 3000 nM; under setting [2], 1000 to 3000 nM.
